The data set can be described thus: Stability of MRI-visibility of grafted substrates after incubation in PBS. It is filed as physicochemical. To be noted: grafted on substrates (PP meshes, thread-like shape); two months in PBS medium (pH=7.4) at 37° C.; FIG. 9C. As for the experimental part:
Bruker 7T BIOSPEC 70/20, “mini-imaging” configuration (gradient BGA12 675 mt/m, resonator “bird cage” 35 mm). After a set of marker gradient echo sequences, a spin3D echo sequence was acquired (FOV 3*3*1 cm matrix 128*128*48, TR=3000 ms, TE=8 ms (TEeff=16), RF=8, acquisition time of 0:51) with an inversion delay of 1300 ms.
MGE 3D sequences with TR/TE 110/3 ms and angles of 75, 30 and 15° were acquired.
Stability of MRI-visibility for PP modified meshes after 2 months in saline phosphate buffer (pH 7.4, 37° C.) is shown in FIG. 9C.

In the case of “4-Azidoaniline Modified Gd-Diethylene Triamine Pentaacetic Acid (Gd-DTPA-biN3) Complex”, the “MRI image after incubation (stability of MRI-visibility)” value is “does not show any image degradation”.

Source of the values: patent US11383008B2, “Surface-modified polymeric substrates grafted with a properties-imparting compound using clip chemistry” (Centre National de la Recherche Scientifique (CNRS), priority 2016, dated 2022).
